From ChEMBL document CHEMBL5241069, “A key review on oxadiazole analogs as potential methicillin-resistant Staphylococcus aureus (MRSA) activity: Structure-activity relationship studies” (Eur J Med Chem, 2021)
Values after ≈ are worked out from the molar mass of the structure shown.

How the values were obtained:
Staphylococcus aureus [1] = test: Antimicrobial activity against methicillin resistant Staphylococcus aureus C5382 assessed as inhibition of cell growth in the presence of oxacillin at 1/2 times of MIC by microdilution method; type: functional
Staphylococcus aureus [2] = test: Antimicrobial activity against methicillin resistant Staphylococcus aureus C5380 assessed as inhibition of cell growth in the presence of oxacillin at 1/2 times of MIC by microdilution method; type: functional
Staphylococcus aureus [3] = test: Antimicrobial activity against methicillin resistant Staphylococcus aureus C5171 assessed as inhibition of cell growth in the presence of oxacillin at 1/2 times of MIC by microdilution method; type: functional
Staphylococcus aureus [4] = test: Antimicrobial activity against methicillin resistant Staphylococcus aureus C3787 assessed as inhibition of cell growth in the presence of oxacillin at 1/2 times of MIC by microdilution method; type: functional
Staphylococcus aureus [5] = test: Antimicrobial activity against methicillin resistant Staphylococcus aureus C3212 assessed as inhibition of cell growth in the presence of oxacillin at 1/2 times of MIC by microdilution method; type: functional
Staphylococcus aureus [6] = test: Antimicrobial activity against methicillin resistant Staphylococcus aureus C5294 assessed as inhibition of cell growth in the presence of oxacillin at 1/2 times of MIC by microdilution method; type: functional
Staphylococcus aureus [7] = test: Antimicrobial activity against methicillin resistant Staphylococcus aureus C4058 assessed as inhibition of cell growth in the presence of oxacillin at 1/2 times of MIC by microdilution method; type: functional
Staphylococcus aureus [8] = test: Antimicrobial activity against methicillin resistant Staphylococcus aureus C5177 assessed as inhibition of cell growth in the presence of oxacillin at 1/2 times of MIC by microdilution method; type: functional
Staphylococcus aureus [9] = test: Antimicrobial activity against methicillin resistant Staphylococcus aureus K118 assessed as inhibition of cell growth in the presence of oxacillin at 1/4 times of MIC by microdilution method; type: functional
Staphylococcus aureus [10] = test: Antimicrobial activity against methicillin resistant Staphylococcus aureus C5282 assessed as inhibition of cell growth in the presence of oxacillin at 1/4 times of MIC by microdilution method; type: functional
Staphylococcus aureus [11] = test: Antimicrobial activity against methicillin resistant Staphylococcus aureus C5269 assessed as inhibition of cell growth in the presence of oxacillin at 1/4 times of MIC by microdilution method; type: functional
Staphylococcus aureus [12] = test: Antimicrobial activity against methicillin resistant Staphylococcus aureus C5382 assessed as inhibition of cell growth in the presence of oxacillin at 1/4 times of MIC by microdilution method; type: functional
Staphylococcus aureus [13] = test: Antimicrobial activity against methicillin resistant Staphylococcus aureus C5380 assessed as inhibition of cell growth in the presence of oxacillin at 1/4 times of MIC by microdilution method; type: functional
Staphylococcus aureus [14] = test: Antimicrobial activity against methicillin resistant Staphylococcus aureus C5171 assessed as inhibition of cell growth in the presence of oxacillin at 1/4 times of MIC by microdilution method; type: functional
Staphylococcus aureus [15] = test: Antimicrobial activity against methicillin resistant Staphylococcus aureus C3787 assessed as inhibition of cell growth in the presence of oxacillin at 1/4 times of MIC by microdilution method; type: functional
Staphylococcus aureus [16] = test: Antimicrobial activity against methicillin resistant Staphylococcus aureus C3212 assessed as inhibition of cell growth in the presence of oxacillin at 1/4 times of MIC by microdilution method; type: functional
Staphylococcus aureus [17] = test: Antimicrobial activity against methicillin resistant Staphylococcus aureus C5294 assessed as inhibition of cell growth in the presence of oxacillin at 1/4 times of MIC by microdilution method; type: functional
Staphylococcus aureus [18] = test: Antimicrobial activity against methicillin resistant Staphylococcus aureus C4058 assessed as inhibition of cell growth in the presence of oxacillin at 1/4 times of MIC by microdilution method; type: functional
Staphylococcus aureus [19] = test: Antimicrobial activity against methicillin resistant Staphylococcus aureus C5177 assessed as inhibition of cell growth in the presence of oxacillin at 1/4 times of MIC by microdilution method; type: functional
Staphylococcus aureus [20] = test: Antimicrobial activity against methicillin resistant Staphylococcus aureus K118 assessed as inhibition of cell growth in the presence of oxacillin at 1/8 times of MIC by microdilution method; type: functional
Staphylococcus aureus [21] = test: Antimicrobial activity against methicillin resistant Staphylococcus aureus C5282 assessed as inhibition of cell growth in the presence of oxacillin at 1/8 times of MIC by microdilution method; type: functional
Staphylococcus aureus [22] = test: Antimicrobial activity against methicillin resistant Staphylococcus aureus C5269 assessed as inhibition of cell growth in the presence of oxacillin at 1/8 times of MIC by microdilution method; type: functional
Staphylococcus aureus [23] = test: Antimicrobial activity against methicillin resistant Staphylococcus aureus C5382 assessed as inhibition of cell growth in the presence of oxacillin at 1/8 times of MIC by microdilution method; type: functional
Staphylococcus aureus [24] = test: Antimicrobial activity against methicillin resistant Staphylococcus aureus C5380 assessed as inhibition of cell growth in the presence of oxacillin at 1/8 times of MIC by microdilution method; type: functional
Staphylococcus aureus [25] = test: Antimicrobial activity against methicillin resistant Staphylococcus aureus C5171 assessed as inhibition of cell growth in the presence of oxacillin at 1/8 times of MIC by microdilution method; type: functional
Staphylococcus aureus [26] = test: Antimicrobial activity against methicillin resistant Staphylococcus aureus C3787 assessed as inhibition of cell growth in the presence of oxacillin at 1/8 times of MIC by microdilution method; type: functional
Staphylococcus aureus [27] = test: Antimicrobial activity against methicillin resistant Staphylococcus aureus C3212 assessed as inhibition of cell growth in the presence of oxacillin at 1/8 times of MIC by microdilution method; type: functional
Staphylococcus aureus [28] = test: Antimicrobial activity against methicillin resistant Staphylococcus aureus C5294 assessed as inhibition of cell growth in the presence of oxacillin at 1/8 times of MIC by microdilution method; type: functional
Staphylococcus aureus [29] = test: Antimicrobial activity against methicillin resistant Staphylococcus aureus C4058 assessed as inhibition of cell growth in the presence of oxacillin at 1/8 times of MIC by microdilution method; type: functional
Staphylococcus aureus [30] = test: Antimicrobial activity against methicillin resistant Staphylococcus aureus C5177 assessed as inhibition of cell growth in the presence of oxacillin at 1/8 times of MIC by microdilution method; type: functional
Staphylococcus aureus [31] = test: Antibacterial activity against methicillin resistant Staphylococcus aureus 42 assessed as inhibition of bacterial growth; type: functional
Staphylococcus aureus [32] = test: Antibacterial activity against methicillin resistant Staphylococcus aureus 128 assessed as inhibition of bacterial growth; type: functional
Staphylococcus aureus [33] = test: Antibacterial activity against methicillin resistant Staphylococcus aureus 181 assessed as inhibition of bacterial growth; type: functional
Staphylococcus aureus [34] = test: Antibacterial activity against methicillin resistant Staphylococcus aureus 747 assessed as inhibition of bacterial growth; type: functional
Staphylococcus aureus [35] = test: Potency index, ratio of cefepime MIC to test compound MIC for antibacterial activity against methicillin resistant Staphylococcus aureus 42 assessed as inhibition of bacterial growth; type: functional
Staphylococcus aureus [36] = test: Antibacterial activity against Staphylococcus aureus ATCC 29213 assessed as inhibition of bacterial growth by CLSI protocol based microdilution method; type: functional
Staphylococcus aureus [37] = test: Antibacterial activity against Staphylococcus aureus ATCC 27660 assessed as inhibition of bacterial growth by CLSI protocol based microdilution method; type: functional
Staphylococcus aureus [38] = test: Antibacterial activity against Staphylococcus aureus NRS100 (COL) assessed as inhibition of bacterial growth by CLSI protocol based microdilution method; type: functional
Staphylococcus aureus [39] = test: Antibacterial activity against Staphylococcus aureus NRS119 assessed as inhibition of bacterial growth by CLSI protocol based microdilution method; type: functional
Staphylococcus aureus [40] = test: Antibacterial activity against Staphylococcus aureus NRS120 assessed as inhibition of bacterial growth by CLSI protocol based microdilution method; type: functional
Staphylococcus aureus [41] = test: Antibacterial activity against vancomycin resistant Staphylococcus aureus 1 assessed as inhibition of bacterial growth by CLSI protocol based microdilution method; type: functional
Staphylococcus aureus [42] = test: Antibacterial activity against vancomycin resistant Staphylococcus aureus 2 assessed as inhibition of bacterial growth by CLSI protocol based microdilution method; type: functional
[43] = Oral bioavailability in ICR mouse at 50 mg/kg; type: ADME, organism-based; conditions: in vivo
[44] = Elimination half life in ICR mouse at 50 mg/kg, iv; type: ADME, organism-based; conditions: in vivo, read-out: beta t1/2 (converted)

## FC(F)(F)c1ccc(Oc2ccc(-c3noc(-c4ccc5[nH]ccc5c4)n3)cc2)cc1
Staphylococcus aureus [1]
  MIC: ≤ 0.03 µg/mL
Staphylococcus aureus [2]
  MIC: ≤ 0.03 µg/mL
Staphylococcus aureus [3]
  MIC: ≤ 0.03 µg/mL
Staphylococcus aureus [4]
  MIC: ≤ 0.03 µg/mL
Staphylococcus aureus [5]
  MIC: ≤ 0.03 µg/mL
Staphylococcus aureus [6]
  MIC: ≤ 0.03 µg/mL
Staphylococcus aureus [7]
  MIC: ≤ 0.03 µg/mL
Staphylococcus aureus [8]
  MIC: ≤ 0.03 µg/mL
Staphylococcus aureus [9]
  MIC: ≤ 0.03 µg/mL
Staphylococcus aureus [10]
  MIC: ≤ 0.03 µg/mL
Staphylococcus aureus [11]
  MIC: ≤ 0.03 µg/mL
Staphylococcus aureus [12]
  MIC: ≤ 0.03 µg/mL
Staphylococcus aureus [13]
  MIC: ≤ 0.03 µg/mL
Staphylococcus aureus [14]
  MIC: ≤ 0.03 µg/mL
Staphylococcus aureus [15]
  MIC: ≤ 0.03 µg/mL
Staphylococcus aureus [16]
  MIC: ≤ 0.03 µg/mL
Staphylococcus aureus [17]
  MIC: ≤ 0.03 µg/mL
Staphylococcus aureus [18]
  MIC: ≤ 0.03 µg/mL
Staphylococcus aureus [19]
  MIC: ≤ 0.03 µg/mL
Staphylococcus aureus [20]
  MIC: ≤ 0.03 µg/mL
Staphylococcus aureus [21]
  MIC: ≤ 0.03 µg/mL
Staphylococcus aureus [22]
  MIC: ≤ 0.03 µg/mL
Staphylococcus aureus [23]
  MIC: ≤ 0.03 µg/mL
Staphylococcus aureus [24]
  MIC: ≤ 0.03 µg/mL
Staphylococcus aureus [25]
  MIC: ≤ 0.03 µg/mL
Staphylococcus aureus [26]
  MIC: ≤ 0.03 µg/mL
Staphylococcus aureus [27]
  MIC: ≤ 0.03 µg/mL
Staphylococcus aureus [28]
  MIC: ≤ 0.03 µg/mL
Staphylococcus aureus [29]
  MIC: ≤ 0.03 µg/mL
Staphylococcus aureus [30]
  MIC: < 0.03 µg/mL

## O=c1c(Br)cnc2onc(-c3ccc(F)cc3F)n12
Staphylococcus aureus [31]
  MIC: 12.4 µg/mL (≈ 37.8 µM)
Staphylococcus aureus [32]
  MIC: 17.6 µg/mL (≈ 53.6 µM)
Staphylococcus aureus [33]
  MIC: 29.9 µg/mL (≈ 91.1 µM)
Staphylococcus aureus [34]
  MIC: 29.9 µg/mL (≈ 91.1 µM)
Staphylococcus aureus [35]
  Ratio: 3

## Oc1ccc(-c2nc(-c3ccc(Oc4ccc(C(F)(F)F)cc4)cc3)no2)cc1
Staphylococcus aureus [36]
  MIC: 2 µg/mL (≈ 5.02 µM)
Staphylococcus aureus [37]
  MIC: 2 µg/mL (≈ 5.02 µM)
Staphylococcus aureus [38]
  MIC: 2 µg/mL (≈ 5.02 µM)
Staphylococcus aureus [39]
  MIC: 2 µg/mL (≈ 5.02 µM)
Staphylococcus aureus [40]
  MIC: 2 µg/mL (≈ 5.02 µM)
Staphylococcus aureus [41]
  MIC: 2 µg/mL (≈ 5.02 µM)
Staphylococcus aureus [42]
  MIC: 2 µg/mL (≈ 5.02 µM)
[43]
  bioavailability: 100%
[44]
  half-life: 40 h
